In patent US20120189670A1, “PHARMACEUTICAL COMPOSITIONS AND FORMULATIONS INCLUDING INHIBITORS OF THE PLECKSTRIN HOMOLOGY DOMAIN AND METHODS FOR USING SAME” (priority 2009, published 2012):
≈ marks a conversion by molar mass, not a printed value. Read-outs that look alike come from different tables or passages of the source. Values belong to the compound of their own block, whether it stands above or below them.

Experiments:
[1] = system: Panc-1 pancreatic cell line; assay: Apoptosis, morphological assay, Panc-1; type: cell-based, human; conditions: Panc-1, 20 μmol/L
Source text: (§1) AKT inhibition leads to cellular apoptosis.

[2] = system: MiaPaca-2 pancreatic cell line; assay: Apoptosis, morphological assay, MiaPaca-2; type: cell-based, human; conditions: MiaPaca-2, 20 μmol/L
Source text: as §1

[3] = system: Panc-1 pancreatic cell line; assay: MTT cell survival, Panc-1; type: cell-based; conditions: Homo sapiens; Panc-1, MTT
[4] = system: MiaPaca-2 pancreatic cell line; assay: MTT cell survival, MiaPaca-2; type: cell-based; conditions: Homo sapiens, MIA PaCa-2; MiaPaca-2, MTT
Source text: as §1

[5] = system: pancreatic cancer cells; assay: Cell viability assay (Table 3); conditions: viability assay; cell line not given
[6] = target: T1, AKT PH domain (Homo sapiens, UniProt P31749); assay: SPR direct binding (Biacore 2000), KD; design: made in house; conditions: purified AKT PH domain
Procedure: (§2) Binding assays using SPR and an ELISA competitive binding assay were used to measure the binding affinity (KD) of the compounds to all three PH domains. SPR was carried out as described above. […] Purified GST-PH domains were incubated with increasing concentrations of the compounds under analysis for about 4 hours in 0.2 M carbonate buffer pH 9.4 and were added to the 96-well plate and incubated overnight at 4° C. Following incubation, the plate was washed 4 times with phosphate buffered 0.9% NaCl (PBS), blocked with 3% bovine serum albumin (BSA) in PBS and 0.01% Tween for 1 hour, washed again 4 times with PBS and mouse monoclonal anti-glutathione-S-transferase antibody in 3% BSA (1:2000) was added for 1 hr at room temperature with shaking. The plate was washed 4 times with PBS and an anti-mouse IgG horseradish peroxidase coupled antibody (dilution 1:2000 in 3% BSA) was added for 1 hr. After 4 washes with PBS, 2,2′-azinobis[3-ethylbenzothiazoline-6-sulfonic acid]-diammonium salt (ABST) was added and the reaction was allowed to develop for 30 min.

[7] = system: SKOV-3 ovarian cancer; assay: Antitumor activity, oral gavage, SKOV-3 xenograft; type: in vivo, mouse; conditions: SKOV-3, 250 mg/kg BID × 10 D oral
[8] = pH solubility profile / pKa; type: physicochemical; conditions: aqueous buffer solutions, from pH-solubility profile
Procedure: These samples were then rotated at room temperature for 24 hours. After rotation, if there was no evidence of precipitated compound, additional compound 104 was added and the dissolution processes were repeated. […] HPLC Assay. […] The run time was 5 minutes and the injection volume was 2 μL.

[9] = system: BxPC-3 pancreatic cell lines; assay: MTT cell survival, BxPC-3; type: cell-based; conditions: Homo sapiens; BxPC-3, MTT
[10] = target: AKT (phospho-Ser^473-AKT) in BxPC-3 (Homo sapiens, UniProt P31749); assay: Western blot phospho-Ser473-AKT in BxPC-3 cells; conditions: BXPC-3, read-out: % pAKT Inhibition At 10 μM
[11] = target: T2, AKT (phospho-Ser^473 AKT) in NIH3T3 cells (Mus musculus, UniProt P31750); assay: Inhibition of phospho-Ser473 AKT in NIH3T3 cells; type: cell-based
T2 construct: endogenous in cells; host or cells: NIH3T3
Procedure: […]. […] AKT activity was measured by Western blotting using anti-phosphoSer437 AKT antibody. Downstream targets of AKT were detected also by Western blotting using specific anti-phospho antibodies and anti-actin was used as a loading control.

[12] = Metabolic stability, incubation with HT-29 cells; type: in vitro ADME; conditions: human
Source text: Compound 6 was too insoluble to obtain data.

[13] = Solubility (Table 11); type: physicochemical
[14] = Pharmacokinetics of compound 316 in scid mice; type: in vivo, mouse
[15] = type: in vivo
[16] = target: AKT (phospho-Ser-AKT) in HT-29 xenograft tumors (Homo sapiens, UniProt P31749); assay: Tumor phospho-Ser-AKT in HT-29 xenografts; type: in vivo, mouse; conditions: 4 hours after a single 250 mg/kg dose
[17] = Cytotoxicity in HT-29 cells; type: cell-based, human; conditions: human
[18] = target: T3, AKT (phospho-Ser^473 AKT) in HT-29 colon cancer cells (Homo sapiens, UniProt P31749); assay: Inhibition of phospho-Ser473 AKT in HT-29 colon cancer cells (Table 11); type: cell-based; conditions: human HT-29 colon cancer cells
T3 construct: endogenous in cells; host or cells: HT-29
Procedure: AKT activity was measured by Western blotting using anti-phosphoSer437 AKT antibody. Downstream targets of AKT were detected also by Western blotting using specific anti-phospho antibodies and anti-actin was used as a loading control.
AKT activity was measured by Western blotting using anti-phospho-[…] AKT antibody, PDK activity by anti-phospho-Ser241 PDK antibody as well as downstream target PKC using pan-phospho PKC antibodies. Anti-actin was used as a loading control.

[19] = target: T4, IRS1 PH domain (Homo sapiens, UniProt P35568); assay: SPR direct binding, KD, IRS1 PH domain; conditions: Table 10, SPR; for Kd: read-out: 1RS1 PH mKD
T4 sequence (P35568 12-115 limits assumed): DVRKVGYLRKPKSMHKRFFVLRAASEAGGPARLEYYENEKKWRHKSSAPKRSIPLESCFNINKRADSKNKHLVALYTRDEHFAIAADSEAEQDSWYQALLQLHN
Procedure: as §2

[20] = system: HT-29 cells; assay: Cytotoxicity in HT-29 cells; type: cell-based, human
[21] = system: HT-29 lung cancer cells; assay: MTT cell survival in HT-29 cells (Table 2); type: cell-based; conditions: Homo sapiens
[22] = target: T5, PH domain of PDK1 (Homo sapiens, UniProt O15530); assay: SPR direct binding, KD, PDK1 PH domain; conditions: Table 10, SPR; read-out: PDK1 PH mKD
T5 sequence (O15530 459-550 limits assumed): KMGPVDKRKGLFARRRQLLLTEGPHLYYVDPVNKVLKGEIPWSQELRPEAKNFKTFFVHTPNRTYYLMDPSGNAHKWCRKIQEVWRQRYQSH
Procedure: as §2

[23] = target: T6, AKT (phospho-Ser^473-AKT) in HT-29 lung cancer cells (Homo sapiens, UniProt P31749); assay: Western blot phospho-Ser473-AKT in HT-29 cells (Table 2); type: cell-based; conditions: read-out: AKT inhibition (IC50)
T6 construct: endogenous in cells; host or cells: HT-29
Source text: as §1

[24] = target: T1, AKT PH domain; conditions: purified AKT PH domain, SPR
[25] = HT-29 cell culture conditions, read-out: half lives under cell culture conditions
[26] = incubating with HT-29 cells at maximum DMEM concentration at 37° C., read-out: Metabolic half life

T2 sequence (P31750 whole entry): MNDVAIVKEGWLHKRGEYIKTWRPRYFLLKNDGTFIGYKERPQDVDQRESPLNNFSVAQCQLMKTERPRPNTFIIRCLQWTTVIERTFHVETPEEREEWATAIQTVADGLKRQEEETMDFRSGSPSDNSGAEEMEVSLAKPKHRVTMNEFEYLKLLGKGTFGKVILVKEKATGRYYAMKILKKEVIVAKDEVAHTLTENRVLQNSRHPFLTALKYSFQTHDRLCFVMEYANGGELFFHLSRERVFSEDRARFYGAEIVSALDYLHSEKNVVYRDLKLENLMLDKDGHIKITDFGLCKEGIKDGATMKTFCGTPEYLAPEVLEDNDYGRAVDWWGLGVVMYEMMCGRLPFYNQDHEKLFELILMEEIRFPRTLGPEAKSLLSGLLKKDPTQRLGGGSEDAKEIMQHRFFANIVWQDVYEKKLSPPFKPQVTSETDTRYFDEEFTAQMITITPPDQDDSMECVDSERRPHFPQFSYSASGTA
T3 sequence (P31749 whole entry): as the sequence (P31750 whole entry) above, with N2S, S50A, A100T, R112K, T117E, T389K, N410G, D415H counted along it
T1 sequence (P31749 5-108 limits assumed): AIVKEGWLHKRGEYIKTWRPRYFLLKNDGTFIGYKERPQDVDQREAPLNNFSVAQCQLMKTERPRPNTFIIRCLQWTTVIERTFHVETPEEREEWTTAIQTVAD
AKT (phospho-Ser^473-AKT) in BxPC-3, sequence (P31749 whole entry): as the sequence (P31750 whole entry) above, with N2S, S50A, A100T, R112K, T117E, T389K, N410G, D415H counted along it
T6 sequence (P31749 whole entry): as the sequence (P31750 whole entry) above, with N2S, S50A, A100T, R112K, T117E, T389K, N410G, D415H counted along it
AKT (phospho-Ser-AKT) in HT-29 xenograft tumors, sequence (P31749 whole entry): as the sequence (P31750 whole entry) above, with N2S, S50A, A100T, R112K, T117E, T389K, N410G, D415H counted along it

inhibition at 10 µM [10]: 36%
Compound: CCCCCCCCCCCCc1ccc(S(=O)(=O)Nc2nnc(C(C)(C)C)s2)cc1 [Compound 116, N-(5-tert-Butyl-1,3,4-thiadiazol-2-yl)-4-dodecylbenzenesulfonamide]
IC50 [9]: 45 µM

IC50 [11]: 11 µM | half-life [12, 25]: 1 to 2 h | half-life [12, 26]: 1.03 h | solubility [13]: 28.3 µM (≈ 13.1 µg/mL)
Compound: CC1=NN(C(=O)c2ccccc2)C(=O)C1/N=N/c1ccc(S(=O)(=O)Nc2ncccn2)cc1 (stereo not drawn) [Compound 331]
IC50 [17]: 14 µM

IC50 [11]: > 20 µM | IC50 [18]: > 20 µM | half-life [12, 25]: 1 to 2 h | half-life [12, 26]: 1.52 h | solubility [13]: 28.6 µM (≈ 14.9 µg/mL)
Compound: CC1=NN(C(=O)c2ccc(C(C)(C)C)cc2)C(=O)C1/N=N/c1ccc(S(=O)(=O)Nc2ncccn2)cc1 (stereo not drawn) [Compound 332]
IC50 [17]: 25 µM

1RS1 PH mKD [19]: low KD | Kd [19]: 0.14 ± 0.02 µM | IC50 [18]: > 20 µM | half-life [12, 26]: > 8 h | solubility [13]: 12.9 µM (≈ 6.17 µg/mL)
Compound: CC1=NN(C(=O)c2ccc(N)cc2)C(=O)C1/N=N/c1ccc(S(=O)(=O)Nc2ncccn2)cc1 (stereo not drawn) [Compound 333]
IC50 [17]: > 100 µM | Cytotoxicity (IC50 μM) [20]: no cytotoxicity

Kd [22]: 0.42 µM | 1RS1 PH mKD [19]: low KD | Kd [19]: 1.74 ± 0.41 µM | IC50 [11]: 5 µM | IC50 [18]: > 20 µM | half-life [12, 25]: 1 to 2 h | half-life [12, 26]: 2.3 h | solubility [13]: 13.1 µM (≈ 6.28 µg/mL)
Compound: CC1=NN(C(=O)c2ccc(O)cc2)C(=O)C1/N=N/c1ccc(S(=O)(=O)Nc2ncccn2)cc1 (stereo not drawn) [Compound 360]
IC50 [17]: > 100 µM | Cytotoxicity (IC50 μM) [20]: no cytotoxicity

IC50 [23]: 5 µM
Compound: O=C(O)c1ccccc1C(=O)Nc1ccccc1SCCS(=O)(=O)c1ccc(Cl)cc1 [Compound 389]
IC50 [21]: > 100 µM

Ki [24]: ~0.3 µM
Compound: CCCCCCCC(=O)OC[C@H](COP(=O)(O)O[C@H]1[C@H](O)[C@@H](OP(=O)(O)O)[C@H](OP(=O)(O)O)[C@@H](OP(=O)(O)O)[C@H]1O)OC(=O)CCCCCCC [diC8-PtdIns(3,4,5)P3]

More lines, now with the values behind:

Compound: Nc1ccc(S(=O)(=O)Nc2nncs2)cc1 [Compound 100, 4-Amino-N-(1,3,4-thiadiazol-2-yl)benzenesulfonamide]
Apoptosis at 20 μmol/L [1]: 24.3 ± 3.2/ % | Apoptosis at 20 μmol/L [2]: 25.7 ± 2.6% | IC50 [3]: > 100 µM | IC50 [4]: > 100 µM | Cell viability (IC50) [5]: N/I

Compound: CCCCCCCCCC(=O)Nc1ccc(S(=O)(=O)Nc2nncs2)cc1 [Compound 101, N-(4-(N-1,3,4-Thiadiazol-2-ylsulfamoyl)phenyl)decanamide]
Apoptosis at 20 μmol/L [1]: 28.7 ± 0.3/ % | Apoptosis at 20 μmol/L [2]: 20.0 ± 1.5% | IC50 [3]: 127 µM | IC50 [4]: 90 µM

Compound: CC(=O)Nc1ccc(S(=O)(=O)Nc2nncs2)cc1 [Compound 102, N-(4-(N-1,3,4-Thiadiazol-2-ylsulfamoyl)phenyl)acetamide]
IC50 [3]: > 100 µM | IC50 [4]: > 100 µM | KD [6]: did not appear to bind

Compound: COCCOCCOCC(=O)Nc1ccc(S(=O)(=O)Nc2nncs2)cc1 [Compound 103]
Apoptosis at 20 μmol/L [1]: 11.4 ± 0.5/ % | Apoptosis at 20 μmol/L [2]: 18.7 ± 3.1% | IC50 [3]: > 100 µM | IC50 [4]: > 100 µM

Compound: CCCCCCCCCCCCc1ccc(S(=O)(=O)Nc2nncs2)cc1 [Compound 104, 4-Dodecyl-N-(1,3,4-thiadiazol-2-yl)benzenesulfonamide]
Apoptosis at 20 μmol/L [2]: 31.3 ± 1.6% | Growth rate [7]: 122 ± 16 mm^3/10 days | T/C [7]: 28.3% | pKa ([8]; read-out: acidic pKa): 7.9 to 8.3 | pKa ([8]; read-out: additional pKa): > 9

Compound: CCCCCCCCCCCCc1ccc(S(=O)(=O)Nc2nnc(C)s2)cc1 [Compound 108, 4-Dodecyl-N-(5-methyl-1,3,4-thiadiazol-2-yl)benzenesulfonamide]
IC50 [9]: 61 µM | inhibition at 10 µM [10]: 64%

Compound: CCCCCCCCCCCCc1ccc(S(=O)(=O)Nc2nnc(C(=O)OCC)s2)cc1 [Compound 124E, Ethyl 5-(4-dodecylphenylsulfonamido)-1,3,4-thiadiazole-2-carboxylate]
IC50 [9]: 36 µM

Compound: CCCCCCCCCCCCc1ccc(S(=O)(=O)Nc2nnc(CO)s2)cc1 [Compound 128, 4-Dodecyl-N-(5-(hydroxymethyl)-1,4-thiadiazol-2-yl)benzenesulfonamide]
IC50 [9]: 37 µM

Compound: CC1=NN(C(=O)c2ccc(Cl)cc2)C(=O)C1/N=N/c1ccc(S(=O)(=O)Nc2ncccn2)cc1 (stereo not drawn) [Compound 316, (E)-4-((1-(4-chlorobenzoyl)-3-methyl-5-oxo-4,5-dihydro-1H-pyrazol-4-yl)diazenyl)-N-(pyrimidin-2-yl)benzenesulfonamide]
IC50 [11]: 4 µM | half-life [12, 25]: 1 to 2 h | half-life [12, 26]: 1.03 h | solubility [13]: 17.9 µM (≈ 8.91 µg/mL) | peak plasma concentration ([14]; single dose 250 mg/kg i.p.): 1.4 nM | peak plasma concentration ([14]; single dose 250 mg/kg oral): 600 nM | toxicity of repeated doses ([15]; five daily doses of 250 mg/kg i.p.): moderate neutropenia | toxicity of a single dose ([15]; single dose of up to 250 mg/kg i.p.): no toxicity | tumor phospho-Ser-AKT [16]: inhibition of tumor phospho-Ser-AKT was observed

Compound: NS(=O)(=O)c1nnc(NS(=O)(=O)c2cccc3cccnc23)s1 [Compound 345]
IC50 [21]: > 100 µM

Compound: COc1cc(NS(=O)(=O)c2ccc(NS(=O)(=O)c3c(C)noc3C)cc2)nc(OC)n1 [Compound 415]
IC50 [21]: 3.1 µM
